Each block holds one compound with its values, some of them ahead of it.
Assays:
Assay type in all cases: physicochemical
[1] = Suspension competitive test between Crystalline Form III and Crystalline Form XVIII (EtOAc, MTBE, n-butyl alcohol; solid tested by XRPD); conditions: for Crystalline Form: solid by XRPD after suspension stirring 7 days; for interconversion rate of crystalline form III and crystalline form XVIII: suspension stirring 7 days
[2] = Stability test (1): physical and chemical stability by XRPD and HPLC at 80° C., 40° C./75% RH and 25° C./60% RH; conditions: for chemical stability: degradation (HPLC purity) / physical stability: crystalline form (XRPD): 80° C. (sealed) 24 hours, 40° C./75% RH and 25° C./60% RH (open) 1 week; for purity (area %): HPLC
Description: (sealed) for 24 hours, at 40° C./75% RH and 25° C./60% RH (open) for 1 week, respectively. The physical and chemical stability of the samples were tested by XRPD and HPLC.

[3] = Evaluation of hygroscopicity by Dynamic Moisture Sorption Analyzer (DVS), with XRPD before and after DVS; conditions: for hygroscopicity (in words) / moisture adsorption: 80% RH/25° C.; for moisture adsorption: humidity cycle 0% RH-95% RH-0% RH; for crystalline form after the DVS test (XRPD): XRPD of the sample after the DVS test
[4] = Stability test (2): salt crystalline forms at high temperature, high humidity and light, detection by HPLC and XRPD; conditions: for total impurities (%): HPLC
[5] = Suspension competitive agitation test between anhydrous crystalline forms I, III, XV, XVII and XVIII (IPA, MTBE; solid tested by XRPD); conditions: solid by XRPD after suspension stirring 3 days
[6] = 60° C. (open), 5 days, listed as XXXVI
[7] = 60° C. (open), 10 days, listed as XXXVI
[8] = 60° C. (open), 30 days, listed as XXXVI
[9] = light (RT, white light 6980 lux, UV 282 μW/cm2), 5 days, listed as XXXVI
[10] = light (RT, white light 6980 lux, UV 282 μW/cm2), 10 days, listed as XXXVI

chemical stability: degradation (HPLC purity) [2]: did not degrade
physical stability: crystalline form (XRPD) [2]: did not change
purity (area %) ([2]; 25° C./60% RH 1 week (open)): 99.60 area %
purity (area %) ([2]; 40° C./75% RH 1 week (open)): 99.61 area %
purity (area %) ([2]; 80° C. 24 hours (sealed)): 99.61 area %
purity (area %) ([2]; starting point): 99.48 area %
hygroscopicity (in words) ([3]; DVS): almost no moisture absorption
moisture adsorption ([3]; DVS): 0.04%
crystalline form after the DVS test (XRPD) [3]: did not change
stability of crystalline form III and crystalline form XVIII relative to each other ([1]; room temperature): similar
interconversion rate of crystalline form III and crystalline form XVIII ([1]; room temperature): relatively slow
Compound: O=C(NS(=O)(=O)c1ccc(NCC2COCCO2)c([N+](=O)[O-])c1)c1ccc(N2CCN(CC3=C(c4ccc(Cl)cc4)CC4(CCC4)CC3)CC2)cc1Oc1cnc2[nH]ccc2c1 (single isomer, unassigned) [crystalline form XVIII]

chemical stability: degradation (HPLC purity) [2]: did not degrade
physical stability: crystalline form (XRPD) [2]: did not change
purity (area %) ([2]; 25° C./60% RH 1 week (open)): 98.66 area %
purity (area %) ([2]; 40° C./75% RH 1 week (open)): 98.67 area %
purity (area %) ([2]; 80° C. 24 hours (sealed)): 98.64 area %
purity (area %) ([2]; starting point): 98.65 area %
hygroscopicity (in words) ([3]; DVS): slight hygroscopicity
moisture adsorption ([3]; DVS): 0.9%
crystalline form after the DVS test (XRPD) [3]: did not change
stability of crystalline form III and crystalline form XVIII relative to each other ([1]; room temperature): similar
interconversion rate of crystalline form III and crystalline form XVIII ([1]; room temperature): relatively slow
Compound: O=C(NS(=O)(=O)c1ccc(NCC2COCCO2)c([N+](=O)[O-])c1)c1ccc(N2CCN(CC3=C(c4ccc(Cl)cc4)CC4(CCC4)CC3)CC2)cc1Oc1cnc2[nH]ccc2c1 (single isomer, unassigned) [crystalline form III]

XPRD [4, 6]: changed
XPRD [4, 7]: changed
XPRD [4, 8]: changed
total impurities (%) [4, 6]: 0.97%
total impurities (%) [4, 7]: 1.01%
total impurities (%) [4, 8]: 0.98%
total impurities (%) ([4]; RT/75% RH (open), 5 days, listed as XXXVI): 0.95%
total impurities (%) ([4]; RT/75% RH (open), 10 days, listed as XXXVI): 0.95%
total impurities (%) ([4]; RT/75% RH (open), 30 days, listed as XXXVI): 1.00%
total impurities (%) [4, 9]: 1.06%
total impurities (%) [4, 10]: 1.36%
total impurities (%) ([4]; the initial sample, 0 day, listed as XXXVI): 1.02%
XPRD [4, 9]: no change
XPRD [4, 10]: no change
XPRD ([4]; the initial sample, 0 day): XXXVI
weight increase by hygroscopy (80% RH) ([3]; DVS, 80% RH, listed as XXXVI): 2.00%
XRPD change ([3]; XRPD before and after DVS): no change
Compound: O=C(NS(=O)(=O)c1ccc(NCC2COCCO2)c([N+](=O)[O-])c1)c1ccc(N2CCN(CC3=C(c4ccc(Cl)cc4)CC4(CCC4)CC3)CC2)cc1Oc1cnc2[nH]ccc2c1 (stereo not shown) [citrate crystalline Form XXXVI]

Further lines, the compound ahead of its results:

Compound: O=C(NS(=O)(=O)c1ccc(NC[C@H]2COCCO2)c([N+](=O)[O-])c1)c1ccc(N2CCN(CC3=C(c4ccc(Cl)cc4)CC4(CCC4)CC3)CC2)cc1Oc1cnc2[nH]ccc2c1 [listing 1 of 2 here]
Crystalline Form ([1]; EtOAc, 50° C.): Crystalline Form III
Crystalline Form ([1]; EtOAc, 70° C.): Crystalline Form III
Crystalline Form ([1]; EtOAc, room temperature): Crystalline Form V
Crystalline Form ([1]; MTBE, 50° C.): Crystalline Form III
Crystalline Form ([1]; MTBE, 70° C.): Crystalline Form III
Crystalline Form ([1]; n-Butyl alcohol, 50° C.): Crystalline Form III
Crystalline Form ([1]; n-Butyl alcohol, 70° C.): Crystalline Form III

Compound: O=C(NS(=O)(=O)c1ccc(NCC2COCCO2)c([N+](=O)[O-])c1)c1ccc(N2CCN(CC3=C(c4ccc(Cl)cc4)CC4(CCC4)CC3)CC2)cc1Oc1cnc2[nH]ccc2c1 (stereo not shown) [amorphous form XXV]
chemical stability: degradation (HPLC purity) [2]: did not degrade
physical stability: crystalline form (XRPD) [2]: did not change
purity (area %) ([2]; 25° C./60% RH 1 week (open)): 99.42 area %
purity (area %) ([2]; 40° C./75% RH 1 week (open)): 99.45 area %
purity (area %) ([2]; 80° C. 24 hours (sealed)): 99.42 area %
purity (area %) ([2]; starting point): 99.43 area %

Compound: O=C(NS(=O)(=O)c1ccc(NC[C@H]2COCCO2)c([N+](=O)[O-])c1)c1ccc(N2CCN(CC3=C(c4ccc(Cl)cc4)CC4(CCC4)CC3)CC2)cc1Oc1cnc2[nH]ccc2c1 [listing 2 of 2 here]
Crystalline Form ([5]; IPA, 50° C.): Crystalline Form III
Crystalline Form ([5]; IPA, 70° C.): Crystalline Form III
Crystalline Form ([5]; IPA, room temperature): Crystalline Form III
Crystalline Form ([5]; MTBE, 50° C.): Crystalline Form III
Crystalline Form ([5]; MTBE, 70° C.): Crystalline Form III
Crystalline Form ([5]; MTBE, room temperature): Crystalline Form III
